Test results taken from ChEMBL document CHEMBL5344429, “1,3-Substituted β-Carboline Derivatives as Potent Chemotherapy for the Treatment of Cystic Echinococcosis” (J Med Chem, 2023).
Active and inactive are the calls of the source. The rule behind the calls is not given here.

What was measured:
Echinococcus granulosus [1] = test: Parasiticidal activity against Echinococcus granulosus assessed as collapse of germinal layers at 100 uM incubated for 4 days by scanning electron microscopy; type: functional, organism-based; settings: time 4.0 day
Echinococcus granulosus [2] = test: Parasiticidal activity against Echinococcus granulosus protoscolices assessed as death rate at 5 uM incubated for 4 days by eosin exclusion test; type: functional; settings: time 4 day
Echinococcus granulosus [3] = test: Parasiticidal activity against Echinococcus granulosus protoscolices assessed as death rate at 1 uM incubated for 48 hrs by eosin exclusion test; type: functional
[4] = Cmax in Wistar rat at 5 mg/kg, iv by HPLC analysis; type: ADME, organism-based; design: dose 5 mg/kg, route iv; settings: in vivo
Echinococcus granulosus [5] = test: Parasiticidal activity against Echinococcus granulosus cyst assessed as formation of dense aggregates at 100 uM incubated for 4 days by scanning electron microscopy; type: functional, organism-based; settings: time 4.0 day
Echinococcus granulosus [6] = test: Parasiticidal activity against Echinococcus granulosus protoscolices assessed as loss of suckers at 5 uM incubated for 4 days by scanning electron microscopy; type: functional; settings: time 4.0 day
Echinococcus granulosus [7] = test: Parasiticidal activity against Echinococcus granulosus protoscolices assessed as lethal effect at 0.5 to 5 uM by eosin exclusion test; type: functional, organism-based; settings: dose 0.5-5 µM, TDE = time-dependent effect
Echinococcus granulosus [8] = test: Parasiticidal activity against Echinococcus granulosus protoscolices assessed as lethal effect incubated for 4 days by eosin exclusion test; type: functional, organism-based; settings: dose 0.5-5 µM, time 4.0 day
Echinococcus granulosus [9] = test: Parasiticidal activity against Echinococcus granulosus protoscolices assessed as appearance of blurred marginal structure at 5 uM incubated for 4 days by scanning electron microscopy analysis; type: functional, organism-based; settings: time 4.0 day
[10] = AUC (0 to infinity) in Wistar rat at 5 mg/kg, iv by HPLC analysis; type: ADME, organism-based; design: dose 5 mg/kg, route iv; settings: in vivo
Echinococcus granulosus [11] = test: Parasiticidal activity against Echinococcus granulosus protoscolices assessed as death rate at 0.5 uM incubated for 4 days by eosin exclusion test; type: functional; settings: time 4 day
[12] = Oral bioavailability in Wistar rat at 50 mg/kg, […] by HPLC analysis; type: ADME, organism-based; settings: in vivo
Echinococcus granulosus [13] = test: Parasiticidal activity against Echinococcus granulosus protoscolices assessed as increase in death rate at 5 uM incubated for 4 days by darker staining-based light microscopy; type: functional, organism-based; settings: time 4.0 day
Echinococcus granulosus [14] = test: Parasiticidal activity against Echinococcus granulosus protoscolices assessed as change in ultrastructure at 5 uM incubated for 4 days by scanning electron microscopy; type: functional, organism-based; settings: time 4.0 day
Echinococcus granulosus [15] = test: Parasiticidal activity against Echinococcus granulosus protoscolices assessed as appearance of rostellum hooks fall off at 5 uM incubated for 4 days by scanning electron microscopy analysis; type: functional, organism-based; settings: time 4.0 day
Echinococcus granulosus [16] = test: Parasiticidal activity against Echinococcus granulosus protoscolices […] by eosin exclusion test; type: functional; settings: 1152 h, time 48 day
Echinococcus granulosus [17] = test: Parasiticidal activity against Echinococcus granulosus protoscolices assessed as appearance of body shrank at 5 uM incubated for 4 days by scanning electron microscopy analysis; type: functional, organism-based; settings: time 4.0 day
Echinococcus granulosus [18] = test: Parasiticidal activity against Echinococcus granulosus cyst assessed as seperation from cuticle at 100 uM incubated for 4 days by scanning electron microscopy; type: functional, organism-based; settings: time 4.0 day
Echinococcus granulosus [19] = test: Parasiticidal activity against Echinococcus granulosus protoscolices assessed as degeneration of outer skin at 5 uM incubated for 4 days by scanning electron microscopy; type: functional, organism-based; settings: time 4.0 day
Echinococcus granulosus [20] = test: Parasiticidal activity against Echinococcus granulosus protoscolices assessed as partial vacuolar change at 5 uM incubated for 4 days by scanning electron microscopy analysis; type: functional, organism-based; settings: time 4.0 day
Echinococcus granulosus [21] = test: Parasiticidal activity against Echinococcus granulosus protoscolices assessed as loss of hooks at 5 uM incubated for 4 days by scanning electron microscopy; type: functional, organism-based; settings: time 4.0 day
[22] = Neurotoxicity in Kunming mouse assessed as organelles damage at 50 mg/kg, ip administered for 28 days by TEM analysis; type: toxicity, organism-based; settings: in vivo, 672 h, time 28 day
[23] = Neurotoxicity in Kunming mouse assessed as effect on hippocampal structure at 50 mg/kg, ip administered for 28 days by TEM analysis; type: toxicity, organism-based; settings: in vivo, 672 h, time 28 day
[24] = Neurotoxicity in Kunming mouse assessed as deformed pyramidal cells in brain at 50 mg/kg, ip administered for 28 days by H and E staining based assay; type: toxicity, organism-based; settings: in vivo, 672 h, time 28 day
[25] = Neurotoxicity in Kunming mouse assessed as loosely arranged pyramidal cells in brain at 50 mg/kg, ip administered for 28 days by H and E staining based assay; type: toxicity, organism-based; settings: in vivo, 672 h, time 28 day
[26] = Neurotoxicity in Kunming mouse assessed as swollen pyramidal cells in brain at 50 mg/kg, ip administered for 28 days by H and E staining based assay; type: toxicity, organism-based; settings: in vivo, 672 h, time 28 day
[27] = Neurotoxicity in Kunming mouse assessed as effect on heterochromatin at 50 mg/kg, ip administered for 28 days by TEM analysis; type: toxicity, organism-based; settings: in vivo, 672 h, time 28 day
[28] = Neurotoxicity in Kunming mouse assessed as nuclei damage at 50 mg/kg, ip administered for 28 days by TEM analysis; type: toxicity, organism-based; settings: in vivo, 672 h, time 28 day
[29] = Neurotoxicity in Kunming mouse assessed as effect on hippocampal arrangement at 50 mg/kg, ip administered for 28 days by TEM analysis; type: toxicity, organism-based; settings: in vivo, 672 h, time 28 day

COc1ccc(-c2nc(NC(=O)c3ccc(CN4CCC(N5CCCCC5)CC4)cc3)cc3c2[nH]c2ccccc23)cc1OC
Activity (Echinococcus granulosus [1]): Active
Activity (Echinococcus granulosus [2]): >90%
Activity (Echinococcus granulosus [3]): 56.27%
Cmax [4]: 1400 ng/mL
Activity (Echinococcus granulosus [5]): Active
Activity (Echinococcus granulosus [6]): Active
Activity (Echinococcus granulosus [7]): Tde
Activity (Echinococcus granulosus [8]): Dose-Dependent Effect
Activity (Echinococcus granulosus [9]): Active
AUC(0-inf) [10]: 1770 ng·h/mL
Activity (Echinococcus granulosus [11]): >50%
bioavailability [12]: 26.8%
Activity (Echinococcus granulosus [13]): Active
Activity (Echinococcus granulosus [14]): Active
Activity (Echinococcus granulosus [15]): Active
LC50 (Echinococcus granulosus [16]): 3.59 µM
Activity (Echinococcus granulosus [17]): Active
Activity (Echinococcus granulosus [18]): Active
Activity (Echinococcus granulosus [19]): Active
Activity (Echinococcus granulosus [20]): Active
Activity (Echinococcus granulosus [21]): Active

COc1cccc(-c2nc(NC(=O)c3ccc(CN4CCCN(C)CC4)cc3)cc3c2[nH]c2ccccc23)c1
LC50 (Echinococcus granulosus [16]): 17.9 µM

COc1ccccc1-c1nc(C(=O)Nc2ccc(CN3CCC(N4CCCCC4)CC3)cc2)cc2c1[nH]c1ccccc12
Activity (Echinococcus granulosus [3]): Active
LC50 (Echinococcus granulosus [16]): 13.4 µM

CCCSc1ccc2nc(NC(=O)OC)[nH]c2c1 [ALBENDAZOLE]
Activity [22]: Non-Toxic
Activity [23]: Non-Toxic
Activity [24]: Non-Toxic
Activity [25]: Non-Toxic
Activity [26]: Non-Toxic
Activity [27]: Non-Toxic
Activity [28]: Non-Toxic
Activity [29]: Non-Toxic

COc1cc(-c2nc(NC(=O)c3ccc(CN4CCCN(C)CC4)cc3)cc3c2[nH]c2ccccc23)cc(OC)c1OC
Activity (Echinococcus granulosus [3]): Active
LC50 (Echinococcus granulosus [16]): 16 µM

COc1cccc(-c2nc(C(=O)Nc3ccc(CN4CCC(N5CCCCC5)CC4)cc3)cc3c2[nH]c2ccccc23)c1OC
Activity (Echinococcus granulosus [3]): Active
LC50 (Echinococcus granulosus [16]): 5.8 µM

COc1ccc(-c2nc(C(=O)Nc3ccc(CN4CCC(N5CCCCC5)CC4)cc3)cc3c2[nH]c2ccccc23)c(OC)c1
Activity (Echinococcus granulosus [3]): Active
LC50 (Echinococcus granulosus [16]): 13 µM

COc1cc(OC)cc(-c2nc(C(=O)Nc3ccc(CN4CCC(N5CCCCC5)CC4)cc3)cc3c2[nH]c2ccccc23)c1
Activity (Echinococcus granulosus [3]): Active
LC50 (Echinococcus granulosus [16]): 7.16 µM
